Results from US20260226048A1, “MULTI-CYCLIC IRAK AND FLT3 INHIBITING COMPOUNDS AND USES THEREOF” (CHILDREN'S HOSPITAL MEDICAL CENTER, priority 2023, published 2026).

Experiments:
Conditions in all cases: 11-point 3-fold dilution
FLT3 Autoinh. = target: T1, FLT3 Autoinh. (Homo sapiens, UniProt P36888); test: DiscoverX KINOMEscan competition binding assay, FLT3 Autoinh.
T1 construct: purchased DiscoverX (KINOMEscan); host or cells: E. coli BL21-derived host (T7 phage) or HEK-293
T1 sequence (P36888 564-993 limits assumed): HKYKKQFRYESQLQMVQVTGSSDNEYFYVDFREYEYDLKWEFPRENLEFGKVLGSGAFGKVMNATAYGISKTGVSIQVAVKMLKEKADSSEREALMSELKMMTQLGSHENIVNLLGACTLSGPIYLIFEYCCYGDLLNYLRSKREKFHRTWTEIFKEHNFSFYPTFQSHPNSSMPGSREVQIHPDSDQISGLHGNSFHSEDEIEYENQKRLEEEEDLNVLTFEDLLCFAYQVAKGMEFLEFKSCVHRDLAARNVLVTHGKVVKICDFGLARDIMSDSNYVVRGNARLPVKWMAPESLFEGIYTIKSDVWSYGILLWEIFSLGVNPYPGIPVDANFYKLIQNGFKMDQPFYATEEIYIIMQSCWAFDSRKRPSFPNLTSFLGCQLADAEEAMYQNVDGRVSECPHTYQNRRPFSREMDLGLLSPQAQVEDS
Description: (§1) […]. […] As a result, the data report thermodynamic interaction affinities (Kd values), rather than IC50 values that are dependent on ATP concentrations. The assay uses a DNA-tagged version of the protein kinase, and an immobilized ligand bound to a solid support. Compounds that directly or indirectly prevent kinase binding to the immobilized ligand reduce the amount of kinase captured on the solid support, which is detected using an ultra-sensitive qPCR method. Affinity constants reported from the assay have been reported to be independent of the immobilized ligand used that is coupled to the solid support (See supplemental information in Fabian, M. A. et. al., (2005) Nat. Biotechnol. 23, 329-336; Wodicka, L. M. et. al., (2010) Chem. Biol. 17, 1241-1249.)
(§2) Kinase-tagged T7 phage strains were prepared in an E. coli host derived from the BL21 strain. E. coli were grown to log-phase and infected with T7 phage and incubated with shaking at 32° C. until lysis. The lysates were centrifuged and filtered to remove cell debris. The remaining kinases were produced in HEK-293 cells and subsequently tagged with DNA for qPCR detection. Streptavidin-coated magnetic beads were treated with biotinylated small molecule ligands for 30 minutes at room temperature to generate affinity resins for kinase assays. The liganded beads were blocked with excess biotin and washed with blocking buffer (SeaBlock (Pierce), 1% BSA, 0.05% Tween 20, 1 mM DTT) to remove unbound ligand and to reduce non-specific binding. […] Test compounds were prepared as 111× stocks in 100% DMSO. Kds were determined using an 11-point 3-fold compound dilution series with three DMSO control points. All compounds for Kd measurements are distributed by acoustic transfer (non-contact dispensing) in 100% DMSO. The compounds were then diluted directly into the assays such that the final concentration of DMSO was 0.9%. All reactions were performed in polypropylene 384-well plates. Each was a final volume of 0.02 mL. […] The kinase concentration in the eluates was measured by qPCR.
(§3) Binding constants (Kds) were calculated with a standard dose-response curve using the Hill equation. The Hill Slope was set to −1. Curves were fitted using a non-linear least square fit with the Levenberg-Marquardt algorithm.

FLT3 K663Q = target: T2, FLT3 K663Q (Homo sapiens, UniProt P36888, K663Q); test: DiscoverX KINOMEscan competition binding assay, FLT3 K663Q
T2 construct: purchased DiscoverX (KINOMEscan); host or cells: E. coli BL21-derived host (T7 phage) or HEK-293
T2 sequence (P36888 27-993 K663Q): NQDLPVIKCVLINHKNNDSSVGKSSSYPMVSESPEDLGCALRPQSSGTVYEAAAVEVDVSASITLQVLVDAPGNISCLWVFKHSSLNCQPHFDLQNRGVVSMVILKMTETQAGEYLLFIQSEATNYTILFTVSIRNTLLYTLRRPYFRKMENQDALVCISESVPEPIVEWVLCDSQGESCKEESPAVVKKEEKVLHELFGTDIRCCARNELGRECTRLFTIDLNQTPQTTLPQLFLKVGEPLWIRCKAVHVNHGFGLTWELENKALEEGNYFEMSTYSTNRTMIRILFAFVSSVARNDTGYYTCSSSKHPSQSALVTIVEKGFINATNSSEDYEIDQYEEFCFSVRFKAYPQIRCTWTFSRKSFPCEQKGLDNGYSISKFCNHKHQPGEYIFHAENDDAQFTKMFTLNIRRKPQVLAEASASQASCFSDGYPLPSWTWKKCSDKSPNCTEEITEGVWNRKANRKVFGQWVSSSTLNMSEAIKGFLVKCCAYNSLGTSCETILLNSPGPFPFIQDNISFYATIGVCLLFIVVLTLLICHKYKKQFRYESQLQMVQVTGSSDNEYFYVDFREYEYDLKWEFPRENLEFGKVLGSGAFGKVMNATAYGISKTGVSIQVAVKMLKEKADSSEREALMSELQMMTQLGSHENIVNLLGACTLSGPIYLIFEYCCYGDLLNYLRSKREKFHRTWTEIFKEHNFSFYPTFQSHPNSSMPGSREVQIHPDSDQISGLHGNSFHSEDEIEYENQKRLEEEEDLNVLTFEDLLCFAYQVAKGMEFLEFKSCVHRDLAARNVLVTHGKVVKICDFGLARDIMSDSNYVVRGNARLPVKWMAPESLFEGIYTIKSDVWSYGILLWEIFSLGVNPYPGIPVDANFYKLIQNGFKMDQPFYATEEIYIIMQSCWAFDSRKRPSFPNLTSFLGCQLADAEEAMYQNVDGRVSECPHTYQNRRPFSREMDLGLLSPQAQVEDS
Description: as §1, §2, §3

IRAK4 = target: T3, IRAK4 (Homo sapiens, UniProt Q9NWZ3); test: DiscoverX KINOMEscan competition binding assay, IRAK4; design: purchased Reaction Biology (RBC HotSpot)
T3 sequence (Q9NWZ3 1-460): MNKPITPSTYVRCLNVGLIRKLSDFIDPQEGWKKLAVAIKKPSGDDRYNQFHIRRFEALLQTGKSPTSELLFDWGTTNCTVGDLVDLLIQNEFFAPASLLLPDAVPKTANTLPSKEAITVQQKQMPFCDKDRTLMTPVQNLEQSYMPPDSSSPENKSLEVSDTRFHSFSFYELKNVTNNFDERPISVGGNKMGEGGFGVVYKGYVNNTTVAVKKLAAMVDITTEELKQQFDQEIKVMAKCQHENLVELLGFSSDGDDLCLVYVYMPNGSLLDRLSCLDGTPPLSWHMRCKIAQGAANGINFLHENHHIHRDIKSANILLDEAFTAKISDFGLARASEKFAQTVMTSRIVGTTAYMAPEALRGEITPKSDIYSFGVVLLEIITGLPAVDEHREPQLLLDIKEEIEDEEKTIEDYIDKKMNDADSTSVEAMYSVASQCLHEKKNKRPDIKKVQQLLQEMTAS
Description: as §1, §2, §3

Structure (SMILES): COc1cc2ncc(-c3nc(N[C@H]4CNCC[C@@H]4F)ncc3F)n2nc1C1CC1 [Compound 1a, 4-(6-cyclopropyl-7-methoxyimidazo[1,2-b]pyridazin-3-yl)-5-fluoro-N-((3S,4S)-4-fluoropiperidin-3-yl)pyrimidin-2-amine]
- Kd (FLT3 Autoinh.): 2.2 nM
- Kd (FLT3 K663Q): 0.27 nM
- Kd (IRAK4): < 0.17 nM

Structure (SMILES): FC(F)COc1cc2ncc(-c3ccnc(N[C@H]4CNCC[C@@H]4F)n3)n2nc1C1CC1 [Compound 4a, 4-(6-cyclopropyl-7-(2,2-difluoroethoxy)imidazo[1,2-b]pyridazin-3-yl)-N-((3 S,4S)-4-fluoropiperidin-3-yl)pyrimidin-2-amine]
- Kd (FLT3 Autoinh.): 21 nM
- Kd (FLT3 K663Q): 2.3 nM
- Kd (IRAK4): 0.59 nM

Structure (SMILES): COc1cc2ncc(-c3nc(N[C@H]4CNCC[C@@H]4F)ncc3F)n2nc1C(C)(C)O [Compound 45a, 2-(3-(5-fluoro-2-(((3S,4S)-4-fluoropiperidin-3-yl)amino)pyrimidin-4-yl)-7-methoxyimidazo[1,2-b]pyridazin-6-yl)propan-2-ol]
- Kd (FLT3 Autoinh.): 11 nM
- Kd (FLT3 K663Q): 3.5 nM
- Kd (IRAK4): 0.58 nM

Structure (SMILES): CC(C)(O)c1ccc2ncc(-c3nc(N[C@H]4CNCC[C@@H]4F)ncc3F)n2c1 [Compound 46a, 2-(3-(5-fluoro-2-(((3S,4S)-4-fluoropiperidin-3-yl)amino)pyrimidin-4-yl)imidazo[1,2-a]pyridin-6-yl)propan-2-ol]
- Kd (FLT3 Autoinh.): 7.1 nM
- Kd (FLT3 K663Q): 3.7 nM
- Kd (IRAK4): < 0.17 nM

Structure (SMILES): COc1cc2ncc(-c3nc(N[C@H]4CNCC[C@@H]4F)ncc3F)n2nc1C1COC1 [Compound 92a, 5-fluoro-N-((3S,4S)-4-fluoropiperidin-3-yl)-4-(7-methoxy-6-(oxetan-3-yl)imidazo[1,2-b]pyridazin-3-yl)pyrimidin-2-amine]
- Kd (FLT3 Autoinh.): 3.3 nM
- Kd (FLT3 K663Q): 0.49 nM
- Kd (IRAK4): < 0.17 nM

Structure (SMILES): CC(C)(O)c1cn2c(-c3nc(N[C@H]4CNCC[C@@H]4F)ncc3F)cnc2cn1 [Compound 100a, 2-(3-(5-fluoro-2-(((3S,4S)-4-fluoropiperidin-3-yl)amino)pyrimidin-4-yl)imidazo[1,2-a]pyrazin-6-yl)propan-2-ol]
- Kd (FLT3 Autoinh.): 57 nM
- Kd (FLT3 K663Q): 30 nM
- Kd (IRAK4): 1.5 nM

Structure (SMILES): COc1cc2ncc(-c3nc(N[C@H]4CNCC[C@@H]4F)ncc3F)n2nc1N1CCCS1(=O)=O [Compound 112a, 2-(3-(5-fluoro-2-(((3S,4S)-4-fluoropiperidin-3-yl)amino)pyrimidin-4-yl)-7-methoxyimidazo[1,2-b]pyridazin-6-yl)isothiazolidine 1,1-dioxide]
- Kd (FLT3 Autoinh.): 2.7 nM
- Kd (FLT3 K663Q): 0.31 nM
- Kd (IRAK4): 0.61 nM
